What all share (type): biochemical
One test concerns the target T1, JAK1 (Homo sapiens, UniProt P23458).
T1 construct: 5 μl of catalytic domain recombinant Kinase enzyme+Tyr peptide substrate (Invitrogen, Calif.); purchased Invitrogen
In words: Z'-LYTE kinase assay, JAK1 tyrosine phosphorylation activity. As to conditions: read-out: JAK 1 IC50. Here is the method:
(§1) JAK and TYK2 tyrosine phosphorylation activity is measured using the Z′-LYTE™ Technology developed by Invitrogen Corporation (Carlsbad, Calif.). For JAK1, JAK2 and JAK3 the Z′-LYTE™ Kinase Assay Kit-Tyr6 Peptide (part number PV4122) was used. For TYK2 the Z′-LYTE™ Kinase Assay Kit-Tyr6 Peptide (part number PV3192) was used. The Z′-LYTE™ biochemical assay employs a fluorescence resonance energy transfer (FRET) coupled-enzyme format and is based on the differential sensitivity of phosphorylated and non-phosphorylated peptides to proteolitic cleavage. The assay uses a synthetic peptide substrate that is labelled with a donor fluorophore (coumarin) and an acceptor fluorophore (fluorescein) that make up a FRET pair. In the primary reaction (the Kinase Reaction), the kinase transfers the γ-phosphate of ATP to a single tyrosine residue on the substrate, while the presence of a kinase inhibitor in the primary reaction suppresses phosphorylation. In the secondary reaction (the Development Reaction), a site-specific protease (the Development Reagent) is added. The development buffer quenches the Kinase Reaction, while the protease recognizes and cleaves non-phosphorylated Z′-LYTE™ peptide substrate. Cleavage disrupts FRET between the donor and acceptor fluorophores on the non-phosphoryleted substrate, while uncleaved, phosphorylated substrate maintains FRET.
(§2) To test the ability of candidate molecules to inhibit JAK tyrosine phosphorylation activity, molecules are reconstituted in 100% DMSO and serially diluted 1:10 in polypropylene v-bottom microtiter plates. The candidate molecules are then diluted 1:25 into kinase buffer and 2.5 μl transferred into duplicate wells of a 384 well low volume black microtiter assay plate (Corning, USA). The final DMSO concentration in the assay is 1%. The kinase reaction contains 2.5 μl of a candidate molecule, 5 μl of catalytic domain recombinant Kinase enzyme+Tyr peptide substrate (Invitrogen, Calif.) and 2.5 μl ATP (Invitrogen, Calif.). The kinase reaction is allowed to procede for 1 hour at room temperature. The protease reaction is initiated by the addition of 5 μl Development Reagent (Invitrogen, Calif.). After 1 hour incubation at room temperature the fluorescence is measured using a FlexStation plate reader (Molecular Devices, Sunnyvale, Calif.). The reader settings used are as follows: Fluorescence mode, endpoint, top read, excitation 400 nm, emission 445 nm and 520 nm, Auto Cutoff 435 nm and 515 nm, PMT sensitivity high, 6 reads per well. Inhibition of JAK activity is calculated as the percent phosphorylation of substrate in the presence of inhibitor compared to the percent phosphorylation of substrate in the absence of inhibitor. IC50's were derived using Xlfit 4.3 (IDBS, UK), 4 parameter logistic model 205: Y=(A+((B−A)/(1+((C/x)^D)))).

A further test has as its target T2, JAK2 (Homo sapiens, UniProt O60674).
T2 construct: 5 μl of catalytic domain recombinant Kinase enzyme+Tyr peptide substrate (Invitrogen, Calif.); purchased Invitrogen
In words: Z'-LYTE kinase assay, JAK2 tyrosine phosphorylation activity. As to the method: as §1, §2

The target of the next test is T3, JAK3 (Homo sapiens, UniProt P52333).
T3 construct: 5 μl of catalytic domain recombinant Kinase enzyme+Tyr peptide substrate (Invitrogen, Calif.); purchased Invitrogen
In words: Z'-LYTE kinase assay, JAK3 tyrosine phosphorylation activity. As to the method:
as §1, §2

The target of a further test is T4, TYK2 (Homo sapiens, UniProt P29597).
T4 construct: 5 μl of catalytic domain recombinant Kinase enzyme+Tyr peptide substrate (Invitrogen, Calif.); purchased Invitrogen
T4 sequence (P29597 897-1176 limits assumed): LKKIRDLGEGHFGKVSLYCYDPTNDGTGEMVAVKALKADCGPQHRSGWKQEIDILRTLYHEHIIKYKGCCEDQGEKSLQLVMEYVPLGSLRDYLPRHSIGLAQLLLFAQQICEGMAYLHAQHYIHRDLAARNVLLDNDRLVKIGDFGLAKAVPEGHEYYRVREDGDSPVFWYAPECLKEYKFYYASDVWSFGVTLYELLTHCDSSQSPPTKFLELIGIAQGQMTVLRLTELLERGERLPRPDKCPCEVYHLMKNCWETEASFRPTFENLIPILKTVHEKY
In words: Z'-LYTE kinase assay, TYK2 tyrosine phosphorylation activity. Here is the method:
as §1, §2

This note sets out measurements from patent US8853230B2, “Inhibitors of JAK” (Portola Pharmaceuticals, Inc., priority 2009, dated 2014).

pIC50: −log10 of the molar value.

T3 sequence (P52333 822-1111 limits assumed): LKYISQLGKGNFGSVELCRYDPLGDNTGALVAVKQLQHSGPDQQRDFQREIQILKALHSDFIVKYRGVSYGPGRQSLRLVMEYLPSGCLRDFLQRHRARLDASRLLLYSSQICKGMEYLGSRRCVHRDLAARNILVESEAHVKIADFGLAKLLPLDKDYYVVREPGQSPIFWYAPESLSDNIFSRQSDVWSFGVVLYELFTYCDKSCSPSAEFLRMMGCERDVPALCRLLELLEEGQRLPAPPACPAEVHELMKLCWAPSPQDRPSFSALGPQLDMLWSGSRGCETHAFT
T1 sequence (P23458 875-1153 limits assumed): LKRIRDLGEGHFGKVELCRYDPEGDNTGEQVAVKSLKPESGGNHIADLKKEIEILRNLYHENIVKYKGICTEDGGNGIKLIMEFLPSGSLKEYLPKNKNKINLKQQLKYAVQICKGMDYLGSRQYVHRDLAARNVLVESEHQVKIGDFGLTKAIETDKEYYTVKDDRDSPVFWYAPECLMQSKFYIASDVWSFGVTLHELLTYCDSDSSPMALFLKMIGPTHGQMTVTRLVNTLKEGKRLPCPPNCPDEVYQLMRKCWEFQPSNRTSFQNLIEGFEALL
T2 sequence (O60674 849-1124 limits assumed): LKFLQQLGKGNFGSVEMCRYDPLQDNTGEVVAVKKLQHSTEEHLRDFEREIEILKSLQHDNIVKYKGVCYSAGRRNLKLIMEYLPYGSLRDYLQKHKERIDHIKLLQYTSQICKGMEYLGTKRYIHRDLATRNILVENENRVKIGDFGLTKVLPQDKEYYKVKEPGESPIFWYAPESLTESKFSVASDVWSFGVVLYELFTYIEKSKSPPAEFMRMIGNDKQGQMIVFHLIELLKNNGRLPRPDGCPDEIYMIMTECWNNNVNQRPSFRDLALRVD

For `CC(=O)Nc1cccc(Nc2ncc(C(N)=O)c(N[C@H](C)C(N)=O)n2)c1` [Example 91, (R)-2-(3-acetamidophenylamino)-4-(1-amino-1-oxopropan-2-ylamino)pyrimidine-5-carboxamide], the pIC50 on JAK1, against JAK2, on JAK3 and against TYK2 was 7.00 to 8.00 in each case.
Regarding `CC(=O)Nc1cccc(Nc2ncc(C(N)=O)c(NC3Cc4ccccc4C3)n2)c1` [Example 92, 2-(3-acetamidophenylamino)-4-(2,3-dihydro-1H-inden-2-ylamino)pyrimidine-5-carboxamide], the pIC50 on JAK1, against JAK2, on JAK3 and against TYK2 was 7.00 to 8.00 each time.
In the case of `CC(=O)Nc1cccc(Nc2ncc(C(N)=O)c(NCc3cccc(F)c3)n2)c1` [Example 94, 2-(3-acetamidophenylamino)-4-(3-fluorobenzylamino)pyrimidine-5-carboxamide], the pIC50 was 7.00 to 8.00 at JAK1, 7.00 to 8.00 against JAK2, 8.00 to 9.00 on JAK3 and 7.00 to 8.00 on TYK2.
Regarding `CC(=O)Nc1cccc(Nc2ncc(C(N)=O)c(NCc3cccc(F)c3F)n2)c1` [Example 95, 2-(3-acetamidophenylamino)-4-(2,3-difluorobenzylamino)pyrimidine-5-carboxamide], the pIC50 at JAK1 was 7.00 to 8.00; on JAK2, 7.00 to 8.00; against JAK3, 8.00 to 9.00; on TYK2 it was 7.00 to 8.00.
As to `CC(=O)Nc1cccc(Nc2ncc(C(N)=O)c(N[C@H]3CCc4ccccc43)n2)c1` [Example 96, (S)-2-(3-acetamidophenylamino)-4-(2,3-dihydro-1H-inden-1-ylamino)pyrimidine-5-carboxamide], the pIC50 at JAK1, against JAK2, against JAK3 and against TYK2 was 7.00 to 8.00 each time.
Consider `CC(=O)Nc1cccc(Nc2ncc(C(N)=O)c(N[C@@H]3CCc4ccccc43)n2)c1` [Example 97, (R)-2-(3-acetamidophenylamino)-4-(2,3-dihydro-1H-inden-1-ylamino)pyrimidine-5-carboxamide], for which the pIC50 at JAK1 was 7.00 to 8.00; on JAK2 it was 7.00 to 8.00; against JAK3 it was 8.00 to 9.00; against TYK2, 8.00 to 9.00.
`CC(=O)Nc1cccc(Nc2ncc(C(N)=O)c(N[C@@H](CO)c3ccccc3)n2)c1` [Example 98, (R)-2-(3-acetamidophenylamino)-4-(2-hydroxy-1-phenylethylamino)pyrimidine-5-carboxamide]: the pIC50 at JAK1 is 6.00 to 7.00; on JAK2, 6.00 to 7.00; at JAK3 it was 7.00 to 8.00; against TYK2 it was 6.00 to 7.00.
Consider `CC(=O)Nc1cccc(Nc2ncc(C(N)=O)c(NCc3ccc4c(c3)OCO4)n2)c1` [Example 99, 2-(3-acetamidophenylamino)-4-(benzo[d][1,3]dioxol-5-ylmethylamino)pyrimidine-5-carboxamide], for which the pIC50 at JAK1 is 6.00 to 7.00; on JAK2, 7.00 to 8.00; on JAK3, 7.00 to 8.00; on TYK2, 7.00 to 8.00.
`CC(=O)Nc1cccc(Nc2ncc(C(N)=O)c(NCc3cccc(Cl)c3)n2)c1` [Example 101, 2-(3-acetamidophenylamino)-4-(3-chlorobenzylamino)pyrimidine-5-carboxamide]: the pIC50 is 7.00 to 8.00 on JAK1, 8.00 to 9.00 on JAK2, 8.00 to 9.00 at JAK3 and 7.00 to 8.00 against TYK2.
On to `CC(=O)Nc1cccc(Nc2ncc(C(N)=O)c(NCc3cc(F)ccc3F)n2)c1` [Example 102, 2-(3-acetamidophenylamino)-4-(2,5-difluorobenzylamino)pyrimidine-5-carboxamide], for which the pIC50 at JAK1 is 6.00 to 7.00; at JAK2, 7.00 to 8.00; against JAK3 it was 8.00 to 9.00; on TYK2, 7.00 to 8.00.
As to `CC(=O)Nc1cccc(Nc2ncc(C(N)=O)c(NCc3ccc(F)cc3)n2)c1` [Example 103, 2-(3-acetamidophenylamino)-4-(4-fluorobenzylamino)pyrimidine-5-carboxamide], the pIC50 at JAK1 was 6.00 to 7.00; on JAK2 it was 7.00 to 8.00; against JAK3, 7.00 to 8.00; against TYK2, 7.00 to 8.00.
Turning to `COCC(=O)Nc1cccc(Nc2ncc(C(N)=O)c(NCc3ccc(F)cc3)n2)c1` [Example 104, 4-(4-fluorobenzylamino)-2-(3-(2-methoxyacetamido)phenylamino)pyrimidine-5-carboxamide], the pIC50 on JAK1 was 6.00 to 7.00; on JAK2 it was 7.00 to 8.00; against JAK3, 7.00 to 8.00; against TYK2, 7.00 to 8.00.
Regarding `C[C@@H](Nc1nc(Nc2cccc(NC(=O)N3CCCC3)c2)ncc1C(N)=O)c1ccccc1` [Example 105, (R)-4-(1-phenylethylamino)-2-(3-(pyrrolidine-1-carboxamido)phenylamino)pyrimidine-5-carboxamide], the pIC50 was 6.00 to 7.00 on JAK1, 7.00 to 8.00 at JAK2, 8.00 to 9.00 at JAK3 and 7.00 to 8.00 on TYK2.
Consider `NC(=O)c1cnc(Nc2ccc(Cl)c(NC(=O)NC3CCC3)c2)nc1NCc1ccccc1` [Example 107, 4-(benzylamino)-2-(4-chloro-3-(3-cyclobutylureido)phenylamino)pyrimidine-5-carboxamide], for which the pIC50 at JAK1 is under 6.00; against JAK2, under 6.00; against JAK3, 6.00 to 7.00; against TYK2, 6.00 to 7.00.
Consider `COCC(=O)Nc1cc(Nc2ncc(C(N)=O)c(N[C@H](C)c3ccccc3)n2)ccc1Cl` [Example 109, (R)-2-(4-chloro-3-(2-methoxyacetamido)phenylamino)-4-(1-phenylethylamino)pyrimidine-5-carboxamide], for which the pIC50 is 6.00 to 7.00 at JAK1, 6.00 to 7.00 against JAK2, 7.00 to 8.00 on JAK3 and 6.00 to 7.00 at TYK2.
As to `C[C@@H](Nc1nc(Nc2ccc(Cl)c(NC(=O)NC3CCC3)c2)ncc1C(N)=O)c1ccccc1` [Example 111, (R)-2-(4-chloro-3-(3-cyclobutylureido)phenylamino)-4-(1-phenylethylamino)pyrimidine-5-carboxamide], the pIC50 is under 6.00 at JAK1, under 6.00 against JAK2, 6.00 to 7.00 against JAK3 and 6.00 to 7.00 on TYK2.
Regarding `CNC(=O)c1cnc(Nc2cccc(NC(C)=O)c2)nc1NCc1ccccc1` [Example 112, 2-(3-acetamidophenylamino)-4-(benzylamino)-N-methylpyrimidine-5-carboxamide], the pIC50 on JAK1, at JAK2, on JAK3 and against TYK2 was under 6.00 throughout.
Regarding `CNC(=O)c1cnc(Nc2cccc(NC(=O)COC)c2)nc1NCc1ccccc1` [Example 113, 4-(benzylamino)-2-(3-(2-methoxyacetamido)phenylamino)-N-methylpyrimidine-5-carboxamide], the pIC50 was under 6.00 on JAK1, under 6.00 on JAK2, 6.00 to 7.00 against JAK3 and 6.00 to 7.00 against TYK2.
Take `CNC(=O)c1cnc(Nc2cccc(NC(=O)COC)c2)nc1NC1Cc2ccccc2C1` [Example 114, 4-(2,3-dihydro-1H-inden-2-ylamino)-2-(3-(2-methoxyacetamido)phenylamino)-N-methylpyrimidine-5-carboxamide]: the pIC50 at JAK1, at JAK2, on JAK3 and on TYK2 was 7.00 to 8.00 throughout.
For `CC(=O)Nc1cccc(Nc2ncc(C(N)=O)c(NCC3CCCNC3)n2)c1` (centres unmarked) [Example 116, 2-(3-acetamidophenylamino)-4-(piperidin-3-ylmethylamino)pyrimidine-5-carboxamide], the negative logarithm of the IC50 (pIC50) at JAK1, at JAK2, on JAK3 and against TYK2 was 7.00 to 8.00 in each case.
